Here are results for 7 compounds from ChEMBL document CHEMBL3627641, “Identification of a new p53/MDM2 inhibitor motif inspired by studies of chlorofusin” (Bioorg Med Chem Lett, 2015).

In one experiment the test system is SJSA-1. The experiment is described as follows: Cytotoxic activity against human SJSA1 cells. Type of experiment: functional, cell-based.
A further experiment concerns A-375. The experiment is described as follows: Cytotoxic activity against human A375 cells. Type of experiment: functional, cell-based.
Where [1] appears, read: Homo sapiens, SJSA-1, read-out: IC50.

Take `O=C(N[C@@H](CCCn1cc(-c2ccc(I)cc2)nn1)C(=O)O)OCC1c2ccccc2-c2ccccc21`: the IC50 entry in the experiment on SJSA-1 (sjsa-1) and in the experiment on A-375 (a-375) was “Not Active” each time.
For `O=C(N[C@@H](CCCn1cc(-c2ccc(Br)cc2)nn1)C(=O)O)OCC1c2ccccc2-c2ccccc21`, the IC50 entry in the experiment on SJSA-1 (sjsa-1) and in the experiment with A-375 (a-375) was “Not Active” throughout.
As to `O=C(N[C@@H](CCCn1cc(-c2ccc(C(F)(F)F)cc2)nn1)C(=O)O)OCC1c2ccccc2-c2ccccc21`, the IC50 turned out to be 31.2 µM in the experiment with SJSA-1 (setting [1]) and 49.3 µM in the experiment on A-375 (Homo sapiens, A-375, read-out: IC50).
With `O=C(N[C@@H](CCCn1cc(-c2ccc(Cl)cc2)nn1)C(=O)O)OCC1c2ccccc2-c2ccccc21`, the IC50 result in the experiment on SJSA-1 (sjsa-1) and in the experiment with A-375 (a-375) was “Not Active” in each case.
Turning to `CC(C)(C)OC(=O)Nc1ccc(-c2cn(CCC[C@H](NC(=O)OCC3c4ccccc4-c4ccccc43)C(=O)O)nn2)cc1`, the IC50 entry in the experiment on SJSA-1 (sjsa-1) and in the experiment with A-375 (a-375) was “Not Active” in each case.
With `COc1ccc(-c2cn(CCC[C@H](NC(=O)OCC3c4ccccc4-c4ccccc43)C(=O)O)nn2)cc1`, the IC50 entry with SJSA-1 (sjsa-1) and in the experiment on A-375 (a-375) was “Not Active” each time.
For `Cc1ccc(-c2cn(CCC[C@H](NC(=O)OCC3c4ccccc4-c4ccccc43)C(=O)O)nn2)cc1`, the IC50 in the experiment with SJSA-1 (setting [1]) was 33.1 µM; with A-375 (a-375) it was “Not Active”.
